Columns and labels:
[1] = biological target: T1, PIP4K2B (Homo sapiens, UniProt P78356); assay: Trans-FI P kinase assay PIP4K2B (Table 4); format: biochemical; conditions: compounds listed under IC50 bins; read-out: Trans-FI P kinase assays: PIP4K2B IC50
T1 construct: made in house; host or cells: E. coli
T1 sequence (P78356 1-416): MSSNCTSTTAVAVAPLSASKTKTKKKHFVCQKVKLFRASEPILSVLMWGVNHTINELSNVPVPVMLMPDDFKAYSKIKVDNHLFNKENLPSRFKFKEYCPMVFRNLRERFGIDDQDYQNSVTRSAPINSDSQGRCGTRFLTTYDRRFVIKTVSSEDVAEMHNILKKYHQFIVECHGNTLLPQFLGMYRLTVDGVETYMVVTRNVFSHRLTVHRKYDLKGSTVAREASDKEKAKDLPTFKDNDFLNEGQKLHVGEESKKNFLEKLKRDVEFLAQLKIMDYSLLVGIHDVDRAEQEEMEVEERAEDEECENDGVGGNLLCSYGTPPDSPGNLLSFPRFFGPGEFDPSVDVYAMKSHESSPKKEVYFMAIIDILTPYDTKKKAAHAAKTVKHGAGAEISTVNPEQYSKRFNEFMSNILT
Text: GST tagged PIP4KtypeIIA and B enzymes were overexpressed in E. Coli and purified to >80% homogeneity. Phosphatidyl inositol-5-phosphate (PI5P, Cat. #850152, Avanti Polar Lipids Inc.) was used as the lipid substrate and phosphatidyl ethanolamine (DOPE 18:1, Cat. #850725, Avanti Polar Lipids Inc.) was used as the carrier lipid for assays. Ultrapure ATP and GTP was purchased from Bellbrooke Labs. ADP Glo reagents were obtained from Promega. Transcreener FI reagent was obtained from Bellbrooke labs.
GST-tagged PIP4KtypeIIB (3.4 μL, 2.77 mg/mL) was diluted to 5 mL using HNE buffer to yield 5× enzyme stock (25 nM)
Lipid Preparation: In a 10 mL pyrex glass vial, […] were suspended in 2.5 mL of HEPES buffer mix and 2.5 mL of H:E buffer. The contents were mixed and sonicated for 3 min to yield a translucent lipid stock.
Compound Preparation: Compounds were stored as 5 mM stocks in neat DMSO as room temperature in glass vials. 5 mM stocks were diluted to 2 mM and then serially diluted (3×) in neat DMSO in 96 well polypropylene plates. From the serially diluted stocks, 3 μL was delivered into 250 μL of 25% DMSO (in water) to generate 5× compound stocks. Typically, the highest compound conc. was 24 μM.
The assay volume was kept at 25 μL. To each well of the reaction plate, 10 μL of lipid stock (1:1 ratio PI5P:DOPE) was delivered. This was followed by the addition of 5 μL of compound in 25% DMSO. Then, to each well, 5 μL of 25 nM (5×) typeIIB enzyme was delivered. The contents were mixed well and incubated for 1 h at 27° C. After 1 h, reaction was initiated by adding 5 μL of 500 μM GTP and the contents were mixed well with a multi-channel pipetteman. The final concentration of the reagents are as follows: 50 mM HEPES, pH 7.3, 10 mM MgCl2, 20 mM NaCl, 0.01% v/v triton-X100, 5% DMSO, 100 μM GTP, 80 μM (2 μg) PI5P, 2 μg DOPE, and 5 nM PIP4KIIB Typically, the highest conc. of compounds was 4.8 μM and the lowest conc. was 0.
After 2 h, the reaction was quenched by adding 25 μL of transcreener FI reagent. The contents were incubated at rt for 1 h and the Fluorescence (Ex: 584 Em: 623) was read using Molecular Devices Paradigm plate reader. […] The blanks were averaged and subtracted from all other wells. Using a calibration curve, RFU was converted to μM GDP (product). IC50 was calculated by plotting the residual activity (expressed as % No inhibitor control) vs. log [Inh. conc.]

[2] = biological target: T2, PIP4K2A (Homo sapiens, UniProt P48426); assay: Kinase Assay PIP4K2 A (Table 2); format: biochemical; set-up: 4 nM PIP4K2A (full length protein, SignalChem); purchased SignalChem; conditions: compounds listed under IC50 bins
T2 sequence (P48426 1-406): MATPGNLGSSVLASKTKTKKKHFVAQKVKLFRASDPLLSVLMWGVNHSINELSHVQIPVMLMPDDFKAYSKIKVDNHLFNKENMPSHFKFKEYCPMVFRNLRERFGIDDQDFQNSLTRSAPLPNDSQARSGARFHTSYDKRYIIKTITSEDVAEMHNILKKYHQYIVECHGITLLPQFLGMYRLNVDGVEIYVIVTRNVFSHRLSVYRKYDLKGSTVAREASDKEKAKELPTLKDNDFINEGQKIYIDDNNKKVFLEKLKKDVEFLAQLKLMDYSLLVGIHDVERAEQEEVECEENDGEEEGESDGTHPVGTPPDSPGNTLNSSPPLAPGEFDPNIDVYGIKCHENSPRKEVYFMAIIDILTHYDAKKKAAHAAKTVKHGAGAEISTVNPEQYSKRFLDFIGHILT
Procedure: Dilution series of the compounds were prepared in DMSO at 100 times the final assay concentration (n1=n0/3 in 10 points). The compounds were further diluted to three times the assay concentration in assay buffer (20 mM MOPS pH 7.2, 25 mM magnesium chloride, 0.005% Tween 20). 6 μL of the diluted compounds were added to a 384 well assay plate followed by 9 μL of a mix consisting of 4 nM PIP4K2A (full length protein, SignalChem) and 100 μM PI(5)P diC8 (Tebu-Bio). Enzyme and compounds were pre-incubated at room temperature for 15 minutes.
Then 3 μL of a solution containing 60 μM ATP (Promega) in assay buffer was added to the wells containing compound and enzyme and mixing was performed by pipetting several times. The reaction was incubated at room temperature for 1 h. Then 18 μL of ADP-Glo™ Reagent (Promega) was added to stop the kinase reaction and deplete the unconsumed ATP, mixing was performed by pipetting several times. The plate was incubated at room temperature for 40 minutes before addition of 36 μL of Kinase Detection Reagent (Promega) to convert ADP to ATP and introduce luciferase and luciferin to detect ATP. The reaction was incubated at room temperature for 40 minutes before the luminescence was measured in a in a Victor 3V 1420 multilabel counter (Perkin Elmer).
Percent inhibition of the compounds as compared to dimethyl sulfoxide treated control samples was calculated. Compound concentration versus percent inhibition were fitted to generate IC50 values.

SMILES	IC50 [1] [nM]	IC50 [2] [nM]
CC(=O)OC(C)C(=O)N1CCOc2ncc(Nc3ccc(-c4ccc(C(=O)N(C)C)cc4)cn3)cc21 (centres unmarked) [Example 91, 1-(7-((5-(4-(dimethylcarbamoyl)phenyl)pyridin-2-yl)amino)-2,3-dihydro-1H-pyrido[2,3-b][1,4]oxazin-1-yl)-1-oxopropan-2-yl acetate]	10 to 100	10 to 100
CN1C[C@H]2COc3ncc(Nc4ccc(-c5ccc(N6CCCC6=O)cc5)cn4)cc3N2S1(=O)=O [Example 175, (S)-1-(4-(6-((2-methyl-1,1-dioxido-2,3,3a,4-tetrahydropyrido[2,3-b][1,2,5]thiadiazolo[2,3-d][1,4]oxazin-8-yl)amino)pyridin-3-yl)phenyl)pyrrolidin-2-one]	10 to 100	100 to 1000
Cn1cnnc1N1CCN(c2ccc(Nc3cnc4c(c3)N3C(=O)CC[C@H]3CO4)nc2)CC1 [Example 275, (S)-2-((5-(4-(4-methyl-4H-1,2,4-triazol-3-yl)piperazin-1-yl)pyridin-2-yl)amino)-6,6a,7,8-tetrahydro-9H-pyrido[2,3-b]pyrrolo[1,2-d][1,4]oxazin-9-one]	10 to 100	100 to 1000
CN(C)C(=O)c1ccc(-c2ccc(Nc3cc[nH]c(=O)c3)nc2)cc1 [Example 221, N,N-dimethyl-4-(6-((2-oxo-1,2-dihydropyridin-4-yl)amino)pyridin-3-yl)benzamide]	–	> 1000
CN(C)C(=O)c1ccc(-c2ccc(Nc3cccnc3)nc2)cn1 [Example 3, N,N-dimethyl-6′-(pyridin-3-ylamino)-[3,3′-bipyridine]-6-carboxamide]	–	> 1000
Cc1cc(Nc2cccnc2)ncc1-c1ccc(C(=O)N(C)C)cc1 [Example 16, N,N-dimethyl-4-(4-methyl-6-(pyridin-3-ylamino)pyridin-3-yl)benzamide]	–	100 to 1000
CCN(C)C(=O)c1ccc(-c2ccc(Nc3cccnc3)nc2)cc1 [Example 68, N-ethyl-N-methyl-4-(6-(pyridin-3-ylamino)pyridin-3-yl)benzamide]	–	100 to 1000
CN(C)C(=O)c1ccc(-c2ccc(Nc3cncc(CCN4CCOCC4)c3)nc2)cc1 [Example 48, N,N-dimethyl-4-(6-((5-(2-morpholinoethyl)pyridin-3-yl)amino)pyridin-3-yl)benzamide]	–	100 to 1000
CN(C)C(=O)c1ccc(-c2cnc(Nc3cccnc3)nc2)cc1 [Example 264, N,N-dimethyl-4-(2-(pyridin-3-ylamino)pyrimidin-5-yl)benzamide]	–	100 to 1000
COc1ncc(Nc2ccc(-c3ccc(C(=O)N(C)C)cc3)cn2)cn1 [Example 34, 4-(6-((2-methoxypyrimidin-5-yl)amino)pyridin-3-yl)-N,N-dimethylbenzamide]	–	100 to 1000
CN(C)C(=O)c1ccc(-c2ccc(Nc3cccnc3)nc2)nc1 [Example 9, N,N-dimethyl-6′-(pyridin-3-ylamino)-[2,3′-bipyridine]-5-carboxamide]	–	> 1000
CN(C)C(=O)c1ccc(-c2ccc(Nc3cncc(C(=O)N(C)C)c3)nc2)cc1 [Example 37, 5-((5-(4-(dimethylcarbamoyl)phenyl)pyridin-2-yl)amino)-N,N-dimethylnicotinamide]	–	> 1000
CN(Cc1cccnc1)C(=O)c1ccc(-c2ccc(Nc3cccnc3)nc2)cc1 [Example 70, N-methyl-4-(6-(pyridin-3-ylamino)pyridin-3-yl)-N-(pyridin-3-ylmethyl)benzamide]	–	> 1000
CN(C)C(=O)c1ccc(-c2ccc(Nc3cccnc3)nc2)s1 [Example 5, N,N-dimethyl-5-(6-(pyridin-3-ylamino)pyridin-3-yl)thiophene-2-carboxamide]	–	> 1000
CN(C)C(=O)c1ccc(-c2ccc(Nc3cncc(N4CCN(Cc5cscn5)C4=O)c3)nc2)cc1 [Example 78, N,N-dimethyl-4-(6-((5-(2-oxo-3-(thiazol-4-ylmethyl)imidazolidin-1-yl)pyridin-3-yl)amino)pyridin-3-yl)benzamide]	–	1 to 10
CCc1cc(Nc2cccnc2)ncc1-c1ccc(C(=O)N(C)C)cc1 [Example 17, 4-(4-ethyl-6-(pyridin-3-ylamino)pyridin-3-yl)-N,N-dimethylbenzamide]	–	100 to 1000
CN(C)C(=O)[C@H]1CC[C@@H](c2ccc(Nc3cccnc3)nc2)CC1 [Example 8, (1s,4s)-N,N-dimethyl-4-(6-(pyridin-3-ylamino)pyridin-3-yl)cyclohexane-1-carboxamide]	–	> 1000
Cc1cc(C(=O)N(C)C)ccc1-c1ccc(Nc2cccnc2)nc1 [Example 2, N,N,3-trimethyl-4-(6-(pyridin-3-ylamino)pyridin-3-yl)benzamide]	–	> 1000
CN(Cc1ccccc1)C(=O)c1ccc(-c2ccc(Nc3cccnc3)nc2)cc1 [Example 67, N-benzyl-N-methyl-4-(6-(pyridin-3-ylamino)pyridin-3-yl)benzamide]	–	100 to 1000
CN(C)C(=O)c1ccc(-c2ccc(Nc3cncc(N(C)C(=O)C4CC4c4ccccc4)c3)nc2)cc1 (centres unmarked) [Example 52, N,N-dimethyl-4-(6-((5-(N-methyl-2-phenylcyclopropane-1-carboxamido)pyridin-3-yl)amino)pyridin-3-yl)benzamide]	–	10 to 100
CN(C)C(=O)c1ccc(-c2ccc(Nc3cncc(N4CCNC4=O)c3)nc2)cc1 [Example 75, N,N-dimethyl-4-(6-((5-(2-oxoimidazolidin-1-yl)pyridin-3-yl)amino)pyridin-3-yl)benzamide]	–	10 to 100
CC(=O)N(C)c1ccc(-c2ccc(Nc3cccnc3)nc2)cc1 [Example 64, N-methyl-N-(4-(6-(pyridin-3-ylamino)pyridin-3-yl)phenyl)acetamide]	–	> 1000
CN(C)C(=O)c1ccc(-c2ccc(Nc3cncc(N(C)S(=O)(=O)C4CC4)c3)nc2)cc1 [Example 25, N,N-dimethyl-4-(6-((5-(N-methylcyclopropanesulfonamido)pyridin-3-yl)amino)pyridin-3-yl)benzamide]	–	10 to 100

Source: patent US11667651B2, “Aminopyridine derivatives as phosphatidylinositol phosphate kinase inhibitors” (HiberCell, Inc., priority 2017, dated 2023)
